These results are taken from patent US9757364B2, “Naphthyridine derivative compounds” (ASTEX THERAPEUTICS LIMITED, priority 2011, dated 2017).

Structures are written as SMILES. Read-outs that look alike come from different tables or passages of the source.

Holding throughout (assay): cells
Assay [1] relates to Ba/F3-Flt3-transfected cells. Particulars: read-out: BAF3-FLT3 (MIN IL3) pIC50 (converted). The method, then: Ba/F3-Flt3 (Minus IL3 or Plus IL3) (Cellular Proliferation Assay)
(§1) Cells were put in an incubator at 37° C. and 5% CO2.
(§2) As a counterscreen the same experiment was performed in the presence of 10 ng/ml murine IL3.

In assay [2] the test system is Ba/F3-FGFR1-transfected cells. The method, then:
Ba/F3-FGFR1 (Minus IL3 or Plus IL3) (Cellular Proliferation Assay)
as §1, §2

Assay [3] deals with Ba/F3-KDR-transfected cells. The method, then: Ba/F3-KDR (Minus IL3 or Plus IL3) (Cellular Proliferation Assay)
as §1, §2

Where [4] appears, read: read-out: BAF3-KDR (MIN IL3) pIC50 (converted).
Where [5] appears, read: read-out: BAF3-KDR (PLUS IL3) pIC50 (converted).

Take `COc1cc(OC)c(F)c(N(Cc2nccn2S(=O)(=O)N(C)C)c2ccc3ncc(-c4cnn(C)c4)cc3n2)c1F` [Compound 64]: the IC50 in assay [1] is 2.45 µM.

Turning to `C#CCN(c1cc(OC)cc(OC)c1)c1ccc2ncc(-c3cnn(C)c3)cc2n1` [Compound 8], the IC50 in assay [1] (24 h) is greater than 10 µM.

Regarding `COCCN(c1cc(OC)cc(OC)c1)c1cc2cc(-c3cnn(C)c3)cnc2cn1` [Compound 69], the IC50 was 8.13 µM in assay [2] (read-out: BAF3-FGFR1 (MIN IL3) pIC50 (converted)), greater than 10 µM in assay [2] (read-out: BAF3-FGFR1 (PLUS IL3) pIC50 (converted)), greater than 10 µM in assay [3] (setting [4]) and greater than 10 µM in assay [3] (setting [5]).

For `COc1cc(OC)c(F)c(N(CCCO)c2ccc3ncc(-c4cnn(C)c4)cc3n2)c1F` [Compound 22], in assay [1], the IC50 was 3.89 µM.

As for `COc1cc(OC)cc(N(Cc2ncc[nH]2)c2cc3cc(-c4cnn(C)c4)cnc3cn2)c1` [Compound 67], the IC50 in assay [3] (setting [4]) and in assay [3] (setting [5]) was greater than 10 µM throughout.

As for `COc1cc(OC)c(F)c(N(Cc2nccn2S(=O)(=O)N(C)C)c2cc3cc(-c4cnn(C)c4)cnc3cn2)c1` [Compound 76], the IC50 in assay [3] (setting [4]) and in assay [3] (setting [5]) was greater than 10 µM in each case.

Take `COc1cc(OC)cc(N(Cc2ncc[nH]2)c2ccc3ncc(-c4cnn(C)c4)cc3n2)c1` [Compound 10]: the IC50 in assay [1] (24 h) is greater than 10 µM.

Consider `COc1cc(/N=c2\ccc3ncc(-c4cnn(C)c4)cc3n2CCNC(C)C)cc(OC)c1` [Compound 5], for which the IC50 in assay [1] (24 h) is greater than 10 µM.

As to `COc1cc(OC)c(F)c(N(Cc2ncccn2)c2ccc3ncc(-c4cnn(C)c4)cc3n2)c1F` [Compound 14], in assay [1], the IC50 was 7.76 µM.

For the compound `COc1cc(OC)cc(N(CCNC(C)C)c2cc3cc(-c4cnn(C)c4)cnc3cn2)c1` [Compound 68], the IC50 in assay [3] (setting [4]) and in assay [3] (setting [5]) was greater than 10 µM in each case.

Take `COCCN(c1cc(OC)cc(OC)c1)c1ccc2ncc(-c3cnn(C)c3)cc2n1` [Compound 3]: the IC50 in assay [1] (24 h) is greater than 10 µM.

`COc1cc(OC)cc(N(CCNC(C)C)c2ccc3ncc(-c4cnn(C)c4)cc3n2)c1` [Compound 4]: in assay [1] (24 h), the IC50 is 7.94 µM.

Consider `COc1cc(OC)cc(N(CCO)c2ccc3ncc(-c4cnn(C)c4)cc3n2)c1` [Compound 1], for which, in assay [1] (24 h), the IC50 was 8.91 µM.

With `COc1cc(OC)cc(N(CCCO)c2ccc3ncc(-c4cnn(C)c4)cc3n2)c1` [Compound 2], the IC50 in assay [1] (24 h) was greater than 10 µM.

For `COc1cc(OC)cc(N(Cc2nccn2S(=O)(=O)N(C)C)c2ccc3ncc(-c4cnn(C)c4)cc3n2)c1` [Compound 7], the IC50 in assay [1] (24 h) was greater than 10 µM.

Take `COc1cc(OC)c(F)c(N(Cc2ncc[nH]2)c2cc3cc(-c4cnn(C)c4)cnc3cn2)c1` [Compound 77]: the IC50 in assay [3] (setting [4]) and in assay [3] (setting [5]) was greater than 10 µM each time.

As for `COc1cc(OC)cc(N(Cc2nccn2S(=O)(=O)N(C)C)c2cc3cc(-c4cnn(C)c4)cnc3cn2)c1` [Compound 66], the IC50 in assay [3] (setting [4]) and in assay [3] (setting [5]) was greater than 10 µM in each case.

As to `COc1cc(OC)cc(N(CCN(CCNC(C)C)C(C)C)c2ccc3ncc(-c4cnn(C)c4)cc3n2)c1` [Compound 6], the IC50 in assay [1] (24 h) was 5.01 µM.

With `COc1cc(OC)c(F)c(N(Cc2ncccn2)c2ccc3ncc(-c4cnn(C)c4)cc3n2)c1` [Compound 27], the IC50 in assay [1] was greater than 10 µM.

Regarding `COc1cc(OC)c(F)c(N(Cc2ncc[nH]2)c2ccc3ncc(-c4cnn(C)c4)cc3n2)c1F` [Compound 65], the IC50 in assay [1] was 3.55 µM.

For the compound `CNCCN(c1cc2cc(-c3cnn(C)c3)cnc2cn1)c1cc(OC)cc(OC)c1F` [Compound 73], the IC50 in assay [3] (setting [4]) and in assay [3] (setting [5]) was greater than 10 µM each time.

As for `COc1cc(OC)c(F)c(N(CCCO)c2cc3cc(-c4cnn(C)c4)cnc3cn2)c1` [Compound 75], the IC50 in assay [3] (setting [4]) and in assay [3] (setting [5]) was greater than 10 µM in each case.
